The text below walks through data of patent publication US20130035321A1, “COMPOUNDS FOR THE TREATMENT OF OCULAR CANCER” (AnalytiCon Discovery GmbH, priority 2009, published 2013).

“Also recorded” adds a separate entry of the source. Where two headings read alike, the source gives them in different places.

The subject of data set [1] is RB355 cells. Put plainly: Cytotoxicity dose response in 384-well plates (Alamar Blue), RB355. The note with it: for activity toward RB355 cells below 100 μM: upper limit 100 μM. Format: cell-based, human. The procedure: (§1) Dose response studies were performed in 384-well microtiter plates (#3712, Corning Inc., Corning, N.Y.) according to the following protocol: cells were added in 45 μL medium to the screening plates using Flexdrop. After 72 h incubation was added 5 μL Alamar Blue using Flexdrop. The cells were then incubated for another 24 h, and the fluorescence intensity was read on LEADseeker™ Multimodality Imaging System as previously described. To calculate the IC50 for each compound toward each cell line, the dose response was assessed in duplicate and using 12 point doubling dilutions with 100 μM compound concentration as the upper limit. The dose response curve for each set of data was fitted separately, and the two IC50 values obtained were averaged.
as §1, with “averaged. […] IC50 of 0.1 corresponds to <0.1 μM and IC50 of 100 corresponds to >100 μM.” for “averaged.”

In data set [2] the test system is Y79 cells. Put plainly: Cytotoxicity dose response in 384-well plates (Alamar Blue), Y79. It is filed as cell-based, human. The note with it: for activity toward Y79 cells below 100 μM: upper limit 100 μM; for IC50: read-out: IC50 toward Y79 cells. The method, then: as §1
as §1, with “averaged. […] IC50 of 0.1 corresponds to <0.1 μM and IC50 of 100 corresponds to >100 μM.” for “averaged.”

The test system of data set [3] is stage Vb retinoblastoma. It is filed as in vivo, human.
In data set [4] the test system is Y79 cells. It is filed as cell-based, human.
Data set [5] concerns Y79, RB355, WERI-Rb-1 and C918 ocular cancer cell lines. Put plainly: Dose response (SAR) of 35 cardenolides in a panel of four ocular cancer cell lines. Format: cell-based, human. The note with it: panel Y79, RB355, WERI-Rb-1, C918. The procedure: as §1
To explore the structure activity relationship (SAR) within this chemical class a collection of 35 cardenolides and derivatives was constituted. The dose response for each compound toward the ocular cancer cell lines Y79, RB355, WERI-Rb-1 and C918 was then assessed.

Data set [6] deals with Y79LUC cells. Put plainly: Subcutaneous Y79LUC xenograft model of retinoblastoma. Format: in vivo, mouse. The method, then:
Subcutaneous xenograft experiments were performed at the Memorial Sloan-Kettering Cancer Center Antitumor Assessment Core Facility. Y79LUC cells (10E6) embedded in matrigel (BD Biosciences, San Jose, Calif.) were injected subcutaneously in the right flank of 8-weeks old ICR/SCID male mice. Treatment started when the tumors reached approximately 250 mm^3. The mice were randomized into three groups and two mice per group were treated with either 10% DMSO (v/v) (control group), 1.5 mg/kg ouabain or 15 mg/kg ouabain. Treatment was performed by continuous subcutaneous infusion using osmotic minipumps (#1007D, Alzet, Cupertino, Calif.). Tumor size was measured externally two times a week with a caliper. Body weight of each mouse was monitored as well as other signs of toxicity throughout the treatment period. Bioluminescent imaging of the tumors was performed once a week and prior to sacrifice as follows: mice were anesthetized by isofluorane inhalation and injected with D-luciferin at 50 mg/Kg (Xenogen) intraperitoneally; photonic emission was measured with the In Vivo Imaging System (IVIS 200, Xenogen) with a collection time of 5 seconds.
The therapeutic effect of the drug ouabain in a mouse xenograft model of retinoblastoma was also investigated. Three groups of two 8 weeks old ICR/SCID male mice bearing Y79 tumors implanted in the flank were treated with either vehicle only, 1.5 mg/kg ouabain or 15 mg/kg ouabain. Mice were continuously infused subcutaneously using an osmotic minipump delivery system. […] In comparison, tumors in the vehicle-treated control group continuously grew, necessitating to euthanize the animals at day 19.

Data set [7] concerns Y79 cells. Format: cell-based, human. The source holds these as a separate data set.
The mark [8] stands for this setting: Homo sapiens, read-out: IC50 toward RB355 cells.

`C=C1/C(=C\C=C2/CCC[C@]3(C)[C@@H]([C@H](C)CCCC(C)(C)O)CC[C@@H]23)C[C@@H](O)C[C@@H]1O` [calcitriol]: the “activity toward RB355 cells below 100 μM” value in data set [1] is listed as “neither caboplatin or calcitriol had any significant activity below 100 μM”. Moreover, the “activity toward Y79 cells below 100 μM” value in data set [2] is “did not demonstrate any significant activity toward Y79 cells below 100 μM”.
For `N.N.O=C([O-])C1(C(=O)[O-])CCC1.[Pt+2]` [carboplatin], the “activity toward RB355 cells below 100 μM” value in data set [1] was “neither caboplatin or calcitriol had any significant activity below 100 μM”. Besides, the “activity toward Y79 cells below 100 μM” value in data set [2] is given as “did not demonstrate any significant activity toward Y79 cells below 100 μM”.
Take `N.N.[Cl][Pt][Cl]` [cisplatin]: the “maximum inhibition toward RB355 cells” value in data set [1] (at 100 μM) is 65%. Further, the “activity toward Y79 cells below 100 μM” value in data set [2] was “did not demonstrate any significant activity toward Y79 cells below 100 μM”.
On to `C[C@H]1O[C@@H](O[C@H]2[C@@H](O)C[C@H](O[C@H]3[C@@H](O)C[C@H](O[C@H]4CC[C@@]5(C)[C@H](CC[C@@H]6[C@@H]5C[C@@H](O)[C@]5(C)[C@@H](C7=CC(=O)OC7)CC[C@]65O)C4)O[C@@H]3C)O[C@@H]2C)C[C@H](O)[C@@H]1O` [digoxin], for which, in data set [3] (in vivo), the “exam three weeks after intraarterial infusion” value is “Exam remained stable”; the “exam three weeks after second round of intraarterial infusion” value is “decreased tumor size, fewer vitreous seeds, and resolution of the retinal detachment”; the “exam three weeks after third intraarterial dose” value was “measurable but modest improvement but residual active disease”. The “reexamination after oral treatment” value in data set [3] (in vivo, po) was “progression of disease”.
In general, IC50 refers to the point on the concentration scale where inhibition reaches its midpoint. Take `COc1cc([C@@H]2c3cc4c(cc3[C@@H](O[C@@H]3O[C@@H]5CO[C@@H](C)O[C@H]5[C@H](O)[C@H]3O)[C@H]3COC(=O)[C@H]23)OCO4)cc(OC)c1O` [etoposide]: the “apoptosis (activated Caspase-3) compared to baseline” value (“apoptosis … compared to baseline” for short) in data set [4] is given as “induced significant apoptosis”. The IC50 in data set [1] (setting [8]) was 970 nM; in data set [2] (Homo sapiens, Y79) it was 11000 nM.
As for `N[C@@H](Cc1ccc(N(CCCl)CCCl)cc1)C(=O)O` [melphalan], in data set [3] (three cycles, administered elsewhere before presentation), the “response to intraarterial chemotherapy” value is given as “incomplete response; also recorded: no regression on the main tumor or vitreous seeds”.
As to `COc1ccc(C2=N[C@@H](c3ccc(Cl)cc3)[C@@H](c3ccc(Cl)cc3)N2C(=O)N2CCNC(=O)C2)c(OC(C)C)c1` [nutlin-3], the IC50 in data set [1] (read-out: IC50 toward RB355 cells) was determined as 11000 nM; in data set [2], 78000 nM.
Regarding `C[C@@H]1O[C@@H](O[C@H]2C[C@@H](O)[C@]3(CO)[C@H]4[C@H](O)C[C@]5(C)[C@@H](C6=CC(=O)OC6)CC[C@]5(O)[C@@H]4CC[C@]3(O)C2)[C@H](O)[C@H](O)[C@H]1O` [ouabain], the “apoptosis … compared to baseline” value in data set [4] is reported as “induced significant apoptosis; also recorded: induces apoptosis”. Also, in data set [5], the “activity across the panel of ocular cell lines” value was “potent activity across the entire panel of ocular cell lines tested”. Moreover, in data set [6] (1.5 mg/kg, continuous subcutaneous infusion), the “tumor burden compared to the control group” value is listed as “seemed to reduce the tumor burden”. Moreover, the “tumor burden by bioluminescent imaging” value in data set [6] (15 mg/kg, continuous subcutaneous infusion by minipump, after 14 days of treatment) is reported as “complete tumor regression”. In data set [6] (15 mg/kg, day 14, caliper), this compound had an average tumor size of 18 mm^3. For the same compound, in data set [6] (15 mg/kg, throughout treatment period), the “toxicity (average body weight, signs of toxicity)” value was “did not induce any significant toxicity; also recorded: no signs of toxicity were observed”. The IC50 in data set [1] (setting [8]) was 400 nM; in data set [2] (Homo sapiens, Y79), 650 nM. In addition, the “effect on Y79 cells in Yo-Pro pilot study” value in data set [7] was “eradicated Y79 cells”.
With `CC[C@]1(O)C[C@H]2CN(CCc3c([nH]c4ccccc34)[C@@](C(=O)OC)(c3cc4c(cc3OC)N(C=O)[C@H]3[C@@](O)(C(=O)OC)[C@H](OC(C)=O)[C@]5(CC)C=CCN6CC[C@]43[C@@H]65)C2)C1` [vincristine], the “apoptosis … compared to baseline” value in data set [4] is “induced significant apoptosis”. Besides, the IC50 in data set [1] (Homo sapiens, read-out: IC50 toward RB355) came to 1.6 nM. Moreover, the “plateau of inhibition toward Y79 cells” value in data set [2] (plateau prevented calculation of IC50) is reported as 50%.
